Reference: PubChem BioAssay (NCI)
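Exposure lasted 48 hours, with cells grown in 96-well plates and compounds tested at five concentrations. At the TGI there is no net growth.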

What was measured:
Experiment in all cases: inhibition of tumour cell growth, NCI panel, 48 h
UACC-257 melanoma = test system: UACC-257 melanoma
MCF7 breast = test system: MCF7 breast
KM12 colon = test system: KM12 colon
RPMI-8226 leukemia = test system: RPMI-8226 leukemia
CCRF-CEM leukemia = test system: CCRF-CEM leukemia
SNB-19 CNS = test system: SNB-19 CNS
OVCAR-3 ovarian = test system: OVCAR-3 ovarian
NCI-H522 lung = test system: NCI-H522 lung
HOP-62 NSCLC = test system: HOP-62 NSCLC
DU-145 prostate = test system: DU-145 prostate

In the case of `COc1ccc(CNc2cc(=O)n(C)c(=O)[nH]2)cc1`, the TGI (UACC-257 melanoma) is reported as > 100 µM, the TGI (MCF7 breast) is reported as > 100 µM and the TGI (KM12 colon) is reported as > 100 µM. The TGI (RPMI-8226 leukemia) was > 100 µM, the TGI (CCRF-CEM leukemia) was > 100 µM and the TGI (SNB-19 CNS) was > 100 µM. For the same compound, the TGI (OVCAR-3 ovarian) was > 100 µM, the TGI (NCI-H522 lung) was > 100 µM and the TGI (HOP-62 NSCLC) was > 100 µM.

With `COc1cccc(C(=O)C#Cc2cnc(OC)nc2OC)c1` the TGI (UACC-257 melanoma) was 6.42 µM, the TGI (MCF7 breast) was 1.28 µM and the TGI (KM12 colon) was 18.7 µM. For the same compound, the TGI (RPMI-8226 leukemia) was 6.43 µM, the TGI (SNB-19 CNS) was 34.8 µM and the TGI (OVCAR-3 ovarian) was 3.62 µM. For the same compound, the TGI (NCI-H522 lung) was 0.762 µM, the TGI (HOP-62 NSCLC) was 47.8 µM and the TGI (DU-145 prostate) was 12.4 µM.

In the case of `CO/N=C1/c2sccc2[C@H](NC(=O)C(Cc2ccccc2)NC(=O)OC(C)(C)C)[C@@H]1O` (stereo not given in full), the TGI (UACC-257 melanoma) is reported as > 100 µM, the TGI (MCF7 breast) is reported as > 100 µM and the TGI (CCRF-CEM leukemia) is reported as > 100 µM. For the same compound, the TGI (SNB-19 CNS) was > 100 µM, the TGI (OVCAR-3 ovarian) was > 100 µM and the TGI (HOP-62 NSCLC) was > 100 µM. The TGI (DU-145 prostate) was > 100 µM.

`COc1cc(CNc2nc3ccccc3nc2C(=O)O)cc(OC)c1OC` was tested, and the TGI (UACC-257 melanoma) was > 100 µM, the TGI (MCF7 breast) was > 100 µM and the TGI (KM12 colon) was > 100 µM. For the same compound, the TGI (RPMI-8226 leukemia) was > 100 µM, the TGI (CCRF-CEM leukemia) was > 100 µM and the TGI (OVCAR-3 ovarian) was > 100 µM. The TGI (NCI-H522 lung) was > 100 µM, the TGI (HOP-62 NSCLC) was > 100 µM and the TGI (DU-145 prostate) was > 100 µM.

With `CCN(CC)c1nnc(CCCCCCCCc2nnc(N(CC)CC)o2)o1` the TGI (UACC-257 melanoma) was > 100 µM, the TGI (MCF7 breast) was > 100 µM and the TGI (KM12 colon) was > 100 µM. For the same compound, the TGI (CCRF-CEM leukemia) was > 100 µM, the TGI (SNB-19 CNS) was > 100 µM and the TGI (OVCAR-3 ovarian) was > 100 µM. The TGI (NCI-H522 lung) was > 100 µM, the TGI (HOP-62 NSCLC) was > 100 µM and the TGI (DU-145 prostate) was > 100 µM.

`COc1cccc(/N=N/C(=NNC(=O)c2ccc(C)cc2)c2ccc(N(C)C)cc2)c1` was tested, and the TGI (UACC-257 melanoma) was > 100 µM, the TGI (MCF7 breast) was > 100 µM and the TGI (KM12 colon) was > 100 µM. The TGI (RPMI-8226 leukemia) was > 100 µM, the TGI (CCRF-CEM leukemia) was > 100 µM and the TGI (SNB-19 CNS) was > 100 µM. The TGI (OVCAR-3 ovarian) was > 100 µM, the TGI (NCI-H522 lung) was > 100 µM and the TGI (DU-145 prostate) was > 100 µM.

For `CC[C@@]1(O)C(=O)OCc2c1cc1n(c2=O)Cc2c-1nc1ccccc1c2/C=N\NC(=O)C(N)CCSC` (stereo not given in full), the TGI (UACC-257 melanoma) was 2.45 µM, the TGI (MCF7 breast) was 1.84 µM and the TGI (RPMI-8226 leukemia) was 4.03 µM. For the same compound, the TGI (CCRF-CEM leukemia) was > 100 µM, the TGI (SNB-19 CNS) was 0.722 µM and the TGI (OVCAR-3 ovarian) was 3.08 µM. For the same compound, the TGI (NCI-H522 lung) was 2.02 µM and the TGI (DU-145 prostate) was > 100 µM.

In the case of `COC(=O)C(=O)Cc1nc2ccccc2o1`, the TGI (UACC-257 melanoma) is reported as > 100 µM, the TGI (KM12 colon) is reported as > 100 µM and the TGI (CCRF-CEM leukemia) is reported as > 100 µM. For the same compound, the TGI (SNB-19 CNS) was > 100 µM, the TGI (OVCAR-3 ovarian) was > 100 µM and the TGI (NCI-H522 lung) was > 100 µM. The TGI (HOP-62 NSCLC) was > 100 µM.

`N#CCCC1(CCC#N)CCCCCCCCC(CCC#N)(CCC#N)C(O)C1O` (stereo not given) was tested, and the TGI (UACC-257 melanoma) was > 100 µM, the TGI (MCF7 breast) was > 100 µM and the TGI (KM12 colon) was > 100 µM. For the same compound, the TGI (RPMI-8226 leukemia) was 58.2 µM, the TGI (SNB-19 CNS) was > 100 µM and the TGI (OVCAR-3 ovarian) was > 100 µM. For the same compound, the TGI (NCI-H522 lung) was > 100 µM, the TGI (HOP-62 NSCLC) was > 100 µM and the TGI (DU-145 prostate) was > 100 µM.

In the case of `CC(C)(CCC(C)(C)N1OC1c1ccccc1)N1OC1c1ccccc1` (stereo not given), the TGI (UACC-257 melanoma) is reported as > 100 µM, the TGI (MCF7 breast) is reported as > 100 µM and the TGI (KM12 colon) is reported as > 100 µM. For the same compound, the TGI (RPMI-8226 leukemia) was 71.4 µM, the TGI (CCRF-CEM leukemia) was 35 µM and the TGI (SNB-19 CNS) was > 100 µM. The TGI (NCI-H522 lung) was 22.2 µM and the TGI (DU-145 prostate) was > 100 µM.

`CC(=O)O[C@H]1CC[C@@]2(C)C(=CC[C@@H]3[C@@H]2CC[C@]2(C)c4nc(Cl)ccc4C[C@@H]32)C1` was tested, and the TGI (UACC-257 melanoma) was > 100 µM, the TGI (MCF7 breast) was 62.3 µM and the TGI (KM12 colon) was > 100 µM. For the same compound, the TGI (CCRF-CEM leukemia) was 58.4 µM, the TGI (SNB-19 CNS) was > 100 µM and the TGI (OVCAR-3 ovarian) was 69.8 µM. For the same compound, the TGI (NCI-H522 lung) was > 100 µM, the TGI (HOP-62 NSCLC) was > 100 µM and the TGI (DU-145 prostate) was > 100 µM.

Work on `CCCCCCCCCCCC[N+](CCCCCCCCCCCC)=C1SCCS1` yielded a TGI (UACC-257 melanoma) of 21.3 µM, a TGI (RPMI-8226 leukemia) of 4.4 µM and a TGI (OVCAR-3 ovarian) of 19.8 µM. For the same compound, the TGI (NCI-H522 lung) was 19.5 µM and the TGI (HOP-62 NSCLC) was 30.5 µM.

With `Nc1ccc(Nc2cc(=O)[nH]c(=O)[nH]2)cc1Cl` the TGI (UACC-257 melanoma) was > 100 µM, the TGI (MCF7 breast) was > 100 µM and the TGI (RPMI-8226 leukemia) was > 100 µM. The TGI (CCRF-CEM leukemia) was > 100 µM, the TGI (SNB-19 CNS) was > 100 µM and the TGI (OVCAR-3 ovarian) was > 100 µM. The TGI (NCI-H522 lung) was > 100 µM and the TGI (DU-145 prostate) was > 100 µM.

With `O=C1CCCC/C1=C\c1ccc(Cl)c(Cl)c1` the TGI (CCRF-CEM leukemia) was 58.7 µM, the TGI (SNB-19 CNS) was 74.3 µM and the TGI (HOP-62 NSCLC) was > 100 µM.

With `Nc1nc2c(C(=O)O)c3ccc([N+](=O)[O-])cc3c(=O)n2c2ccccc12` the TGI (MCF7 breast) was 49.1 µM, the TGI (KM12 colon) was > 100 µM and the TGI (RPMI-8226 leukemia) was > 100 µM. For the same compound, the TGI (CCRF-CEM leukemia) was > 100 µM, the TGI (SNB-19 CNS) was 89.6 µM and the TGI (OVCAR-3 ovarian) was 57 µM. For the same compound, the TGI (NCI-H522 lung) was 44.1 µM, the TGI (HOP-62 NSCLC) was > 100 µM and the TGI (DU-145 prostate) was 49.4 µM.

`CN=C(Nc1cccc(C(F)(F)F)c1)SCc1ccc(N=C=S)cc1` gave a TGI (UACC-257 melanoma) of 27.3 µM, a TGI (KM12 colon) of 29.3 µM and a TGI (RPMI-8226 leukemia) of 45.8 µM. The TGI (CCRF-CEM leukemia) was > 100 µM, the TGI (SNB-19 CNS) was 28.1 µM and the TGI (NCI-H522 lung) was 22.4 µM. For the same compound, the TGI (HOP-62 NSCLC) was 31.7 µM and the TGI (DU-145 prostate) was 31.2 µM.

With `CCN(CCN(CC)C(=O)Nc1ccccc1)C(=O)Nc1ccccc1` the TGI (UACC-257 melanoma) was > 100 µM, the TGI (MCF7 breast) was > 100 µM and the TGI (RPMI-8226 leukemia) was > 100 µM. The TGI (CCRF-CEM leukemia) was > 100 µM, the TGI (SNB-19 CNS) was > 100 µM and the TGI (NCI-H522 lung) was > 100 µM. The TGI (HOP-62 NSCLC) was > 100 µM and the TGI (DU-145 prostate) was > 100 µM.

For `O=NN(CCF)C(=O)NC1CCSCC1`, the TGI (UACC-257 melanoma) was > 100 µM, the TGI (MCF7 breast) was > 100 µM and the TGI (KM12 colon) was > 100 µM. For the same compound, the TGI (RPMI-8226 leukemia) was > 100 µM, the TGI (CCRF-CEM leukemia) was > 100 µM and the TGI (SNB-19 CNS) was > 100 µM. The TGI (OVCAR-3 ovarian) was > 100 µM, the TGI (NCI-H522 lung) was > 100 µM and the TGI (HOP-62 NSCLC) was > 100 µM.

`C=C1CC[C@@H](C)[C@](C)(CCc2ccoc2)C/C=C\C=C/1C(=O)O` was tested, and the TGI (UACC-257 melanoma) was > 100 µM, the TGI (MCF7 breast) was > 100 µM and the TGI (KM12 colon) was > 100 µM. For the same compound, the TGI (CCRF-CEM leukemia) was 90.3 µM, the TGI (SNB-19 CNS) was > 100 µM and the TGI (OVCAR-3 ovarian) was 42.9 µM. The TGI (HOP-62 NSCLC) was > 100 µM.
